These are literature values, as cited in patent US20010033859A1, “Transdermal therapeutic system for delivery of dofetilide” (priority 2000, published 2001).

SMILES strings stand for the structures.

The conditions of the data set: stated as a property of the drug substance; solvent system not given.

As for `CN(CCOc1ccc(NS(C)(=O)=O)cc1)CCc1ccc(NS(C)(=O)=O)cc1` [dofetilide, N-[4-[2-[methyl[2-[4-[(methylsulfonyl)amino]phenoxy]ethyl]amino]ethyl]phenyl]-methanesulfonamide], the partition coefficient result is on record as “about 1”.
